Assay: Effect of alkalinizing agents on the pH of a solution of 0.1 N HCl with a starting pH of 2.0
Format: physicochemical
Details: for pH of the solution: all tested amounts, over the times tested
Method: Various alkalinizing agents were added to a solution of 0.1 N HCl with a starting pH of 2.0 and the pH of the solution was tested at different time points.

Question: Which pH (20 mg per 320 mL, 0 min) does the source give for `O=C([O-])O.[Na+]` [sodium bicarbonate] here?
Answer: Its pH is 2.02.

Question: And the pH (20 mg per 320 mL, 1 min)?
Answer: The pH was 2.04.

Question: And the pH (20 mg per 320 mL, 2 min)?
Answer: The pH was 2.05.

Question: What about the pH (20 mg per 320 mL, 3 min) of the same molecule?
Answer: Its pH is 2.05.

Question: What about the pH (20 mg per 320 mL, 4 min) of the same molecule?
Answer: The pH was 2.05.

Question: And the pH (20 mg per 320 mL, 5 min)?
Answer: The pH was 2.05.

Question: And the pH (20 mg per 320 mL, 6 min)?
Answer: Its pH is 2.05.

Question: And the pH (20 mg per 320 mL, 7 min)?
Answer: Its pH is 2.05.

Question: What about the pH (20 mg per 320 mL, 8 min) of the same molecule?
Answer: The pH was 2.05.

Question: And the pH (20 mg per 320 mL, 9 min)?
Answer: The pH was 2.05.

Question: And the pH (20 mg per 320 mL, 10 min)?
Answer: Its pH is 2.05.

Question: What about the pH (20 mg per 320 mL, 20 min) of the same molecule?
Answer: Its pH is 2.05.

Question: And the pH (20 mg per 320 mL, 30 min)?
Answer: The pH was 2.05.

Question: And the pH (20 mg per 320 mL, 40 min)?
Answer: The pH was 2.05.

Question: And the pH (20 mg per 320 mL, 50 min)?
Answer: The pH was 2.05.

Question: And the pH (20 mg per 320 mL, 60 min)?
Answer: The pH was 2.05.

Question: What about the “effect on pH of the solution” value (20 mg/320 ml and 40 mg/320 ml, 60 minute timecourse) of the same molecule?
Answer: Its value is “neither amount tested was sufficient to raise the pH to neutral or higher”.

Question: And the pH (40 mg per 320 mL, 0 min)?
Answer: The pH was 2.05.

Question: What about the pH (40 mg per 320 mL, 1 min) of the same molecule?
Answer: Its pH is 2.08.

Question: What about the pH (40 mg per 320 mL, 2 min) of the same molecule?
Answer: The pH was 2.08.

Question: What about the pH (40 mg per 320 mL, 3 min) of the same molecule?
Answer: Its pH is 2.08.

Question: And the pH (40 mg per 320 mL, 4 min)?
Answer: The pH was 2.08.

Question: What about the pH (40 mg per 320 mL, 5 min) of the same molecule?
Answer: Its pH is 2.09.

Question: What about the pH (40 mg per 320 mL, 6 min) of the same molecule?
Answer: The pH was 2.09.

Question: What about the pH (40 mg per 320 mL, 7 min) of the same molecule?
Answer: Its pH is 2.09.

Question: And the pH (40 mg per 320 mL, 8 min)?
Answer: The pH was 2.09.

Question: What about the pH (40 mg per 320 mL, 9 min) of the same molecule?
Answer: Its pH is 2.09.

Question: And the pH (40 mg per 320 mL, 10 min)?
Answer: Its pH is 2.09.

Question: What about the pH (40 mg per 320 mL, 20 min) of the same molecule?
Answer: The pH was 2.09.

Question: What about the pH (40 mg per 320 mL, 30 min) of the same molecule?
Answer: The pH was 2.09.

Question: And the pH (40 mg per 320 mL, 40 min)?
Answer: The pH was 2.09.

Question: And the pH (40 mg per 320 mL, 50 min)?
Answer: The pH was 2.09.

Question: What about the pH (40 mg per 320 mL, 60 min) of the same molecule?
Answer: The pH was 2.09.

Question: What about the pH (50 mg/200 ml, 0 min) of the same molecule?
Answer: The pH was 1.71.

Question: What about the pH (50 mg/200 ml, 10 min) of the same molecule?
Answer: The pH was 1.72.

Question: What about the pH (50 mg/200 ml, 20 min) of the same molecule?
Answer: The pH was 1.72.

Question: What about the pH (50 mg/200 ml, 30 min) of the same molecule?
Answer: The pH was 1.72.

Question: What about the pH (50 mg/200 ml, 40 min) of the same molecule?
Answer: Its pH is 1.72.

Question: What about the pH (100 mg/200 ml, 0 min) of the same molecule?
Answer: Its pH is 1.71.

Question: And the pH (100 mg/200 ml, 10 min)?
Answer: The pH was 1.76.

Question: And the pH (100 mg/200 ml, 20 min)?
Answer: Its pH is 1.75.

Question: And the pH (100 mg/200 ml, 30 min)?
Answer: The pH was 1.75.

Question: And the pH (100 mg/200 ml, 40 min)?
Answer: The pH was 1.75.

Question: What about the “effect on pH of the solution” value (50 and 100 mg/200 ml, 40 minute timecourse) of the same molecule?
Answer: Its value is “neither tested amount was sufficient to raise the pH”.

Question: What about the “pH of the solution” value of the same molecule?
Answer: The value was “above 2.0”.

Question: What does the source list for `O=C([O-])[O-].[Na+].[Na+]` [sodium carbonate]?
Answer: pH (11.13 mg/200 ml, 0 min): 2.66; pH (11.13 mg/200 ml, 1 min): 2.80; pH (11.13 mg/200 ml, 2 min): 2.80; pH (11.13 mg/200 ml, 3 min): 2.80; pH (11.13 mg/200 ml, 4 min): 2.80; pH (11.13 mg/200 ml, 5 min): 2.80; pH (11.13 mg/200 ml, 10 min): 2.80; pH (11.13 mg/200 ml, 15 min): 2.80; pH (11.13 mg/200 ml, 20 min): 2.80; pH (11.13 mg/200 ml, 60 min): 2.80; pH (30.11 mg/200 ml, 0 min): 2.57; pH (30.11 mg/200 ml, 1 min): 3.21; pH (30.11 mg/200 ml, 2 min): 3.24; pH (30.11 mg/200 ml, 3 min): 3.25; pH (30.11 mg/200 ml, 4 min): 3.25; pH (30.11 mg/200 ml, 5 min): 3.26; pH (30.11 mg/200 ml, 10 min): 3.27; pH (30.11 mg/200 ml, 15 min): 3.27; pH (30.11 mg/200 ml, 20 min): 3.27; pH (30.11 mg/200 ml, 60 min): 3.27; effect on pH of the solution (81.68 mg in 200 ml): raise the pH of the 200 ml solution to above neutral; pH (81.68 mg/200 ml, 0 min): 2.73; pH (81.68 mg/200 ml, 1 min): 9.02; pH (81.68 mg/200 ml, 2 min): 9; pH (81.68 mg/200 ml, 3 min): 8.97; pH (81.68 mg/200 ml, 4 min): 8.95; pH (81.68 mg/200 ml, 5 min): 8.93; pH (81.68 mg/200 ml, 10 min): 8.83; pH (81.68 mg/200 ml, 15 min): 8.81; pH (81.68 mg/200 ml, 20 min): 8.5; pH (81.68 mg/200 ml, 60 min): 8.25; pH of the solution: > 2.0

Question: Which pH (10 mg (10.22 mg actual) in 200 ml, 0 min) does the source give for `CCCCCCCCCCCCOS(=O)(=O)[O-].[Na+]` [sodium lauryl sulfate] here?
Answer: Its pH is 2.67.

Question: And the pH (10 mg (10.22 mg actual) in 200 ml, 1 min)?
Answer: Its pH is 2.68.

Question: What about the pH (10 mg (10.22 mg actual) in 200 ml, 2 min) of the same molecule?
Answer: The pH was 2.68.

Question: What about the pH (10 mg (10.22 mg actual) in 200 ml, 3 min) of the same molecule?
Answer: Its pH is 2.68.

Question: What about the pH (10 mg (10.22 mg actual) in 200 ml, 4 min) of the same molecule?
Answer: The pH was 2.67.

Question: What about the pH (10 mg (10.22 mg actual) in 200 ml, 5 min) of the same molecule?
Answer: The pH was 2.67.

Question: What about the pH (10 mg (10.22 mg actual) in 200 ml, 6 min) of the same molecule?
Answer: Its pH is 2.67.

Question: What about the pH (10 mg (10.22 mg actual) in 200 ml, 7 min) of the same molecule?
Answer: Its pH is 2.67.

Question: What about the pH (10 mg (10.22 mg actual) in 200 ml, 8 min) of the same molecule?
Answer: The pH was 2.67.

Question: What about the pH (10 mg (10.22 mg actual) in 200 ml, 9 min) of the same molecule?
Answer: Its pH is 2.67.

Question: And the pH (10 mg (10.22 mg actual) in 200 ml, 10 min)?
Answer: The pH was 2.67.

Question: And the pH (10 mg (10.22 mg actual) in 200 ml, 20 min)?
Answer: The pH was 2.67.

Question: What about the pH (10 mg (10.22 mg actual) in 200 ml, 30 min) of the same molecule?
Answer: The pH was 2.67.

Question: What about the “effect on pH of the solution” value (10 mg in 200 ml, 30 minute timecourse) of the same molecule?
Answer: Its value is “insufficient to substantially raise the pH of the solution”.
